Laboratory results reported in the CheMixHub viscosity set.

Experiment: xn = mol fraction of the nth substance listed

NCc1ccccc1 + O
viscosity [mPa·s]
Conditions | 293.15 K | 303.15 K | 313.15 K | 323.15 K
100 kPa, x1 = 0.1 | – | 2.231 | 1.725 | 1.385
100 kPa, x1 = 0.2 | – | 3.098 | 2.324 | 1.793
100 kPa, x1 = 0.3 | – | 3.387 | 2.512 | 1.956
100 kPa, x1 = 0.4 | – | 3.323 | 2.51 | 1.93
100 kPa, x1 = 0.5 | – | 3.1 | 2.353 | 1.831
100 kPa, x1 = 0.6 | – | 2.669 | 2.064 | 1.648
100 kPa, x1 = 0.7 | – | 2.308 | 1.823 | 1.469
100 kPa, x1 = 0.8 | – | 1.957 | 1.591 | 1.309
100 kPa, x1 = 0.9 | – | 1.681 | 1.396 | 1.182
101 kPa, x1 = 0.1003 | 3.23 | 2.28 | 1.7 | 1.38
101 kPa, x1 = 0.2001 | 4.4 | 3.07 | 2.25 | 1.78
101 kPa, x1 = 0.3 | 4.8 | 3.37 | 2.48 | 1.93
101 kPa, x1 = 0.3997 | 4.63 | 3.3 | 2.46 | 1.91
101 kPa, x1 = 0.5002 | 4.16 | 3.05 | 2.28 | 1.79
101 kPa, x1 = 0.6 | 3.57 | 2.67 | 2.03 | 1.63
101 kPa, x1 = 0.7 | 2.95 | 2.28 | 1.78 | 1.47
101 kPa, x1 = 0.7999 | 2.48 | 1.94 | 1.55 | 1.3
101 kPa, x1 = 0.9 | 2.1 | 1.68 | 1.36 | 1.15
